In patent US9980948B2, “Azaindole derivative having AMPK-activating activity” (Shionogi & Co., Ltd., priority 2014, dated 2018):

Target: T1, Human AMPK α2β2γ1 (Homo sapiens, UniProt O43741+P54646)
T1 construct: The full length cDNAs of human AMPK β2 (NM_005399.3) and human AMPK α2 (NM_006252.3); The full length cDNAs of human AMPK β2 (NM_005399.3); the full length cDNA of human AMPK γ1 (NM_002733.3) had been inserted into pET28b(+); 6xHis (N); made in house; host or cells: Escherichia coli BL21 CodonPlus (DE3)-RTL (AMPK); BL21 Star (DE3) (CaMKKβ)
Test: Test Example 2: evaluation of an activator for AMP-activated protein kinase (AMPK), human AMPK α2β2γ1 phosphorylated with CaMKK2, FL-Peptide 7 mobility shift
Format: biochemical
Conditions: for EC150 (compound concentration showing 150% relative to the control (100%)): human AMPK α2β2γ1, 0.2 mM ATP final, 25° C., 2 hours; for Emax / Emax (maximum rate of increase in activity within the measurement range): human AMPK α2β2γ1, relative to control (100%); for Emax: read-out: Emax (maximum rate of increase in activity within the measurement range)
Protocol: The full length cDNAs of human AMPK β2 (NM_005399.3) and human AMPK α2 (NM_006252.3) were inserted into the MCS1 and MCS2 of the pETDuet-1 vector to prepare a human AMPK β2 and human AMPK α2 (6× His tag at the 5′ terminus) expressing plasmid. The plasmid was cotransfected with an expression plasmid, in which the full length cDNA of human AMPK γ1 (NM_002733.3) had been inserted into pET28b(+), into BL21 CodonPlus (DE3)-RTL to obtain an expression strain. The expression strain was cultured in TB medium, followed by induction with 0.5 mM IPTG, and cultured at 25° C. for 3 hours and then harvested.
An expression vector, in which the full length cDNA of human CAMKK β (NM_172226.1) had been inserted into pGEX-6P-3, was transfected into BL21 Star (DE3). The expression strain was cultured in TB medium, followed by induction with 0.5 mM IPTG, and cultured at 25° C. for 3 hours and then harvested.
Thus, phosphorylation treatment was carried out as pretreatment.
Human AMPK α2β2γ1 in an amount to give a conversion rate of approximately 10% by reaction for 2 hours, and CaMKK2 in an amount capable of sufficiently imparting activity to AMPK for one hour were mixed in a buffer solution consisting of a 50 mM HEPES-NaOH buffer solution (pH 7.0), 100 mM NaCl, 5 mM magnesium chloride, 0.1% bovine serum albumin, 0.2 mM sodium orthovanadate(V), 1 mM ethylene glycol-bis(2-aminoethyl ether)-N,N,N′,N′-tetraacetic acid (EGTA), 5 mM disodium β-glycerophosphate, 1 mM dithiothreitol and 0.2 mM ATP, and the obtained liquid was left to stand at 25° C. for 1 to 1.5 hours to sufficiently phosphorylate AMPK.
The obtained liquid was left to stand for 10 minutes.
The obtained liquid was allowed to react at 25° C. for 2 hours, and 10 μl of 20 mM EDTA was then added thereto to stop the reaction.
To detect phosphorylated fluorescent substrates, the reaction liquid was applied to a measuring device, LabChip EZ Reader II manufactured by Caliper Life Science, Inc., for detecting fluorescence by using differences in mobility due to differences in charge. The setting conditions for the device were pressure, −1.5 PSI; upstream voltage, −2250 V; downstream voltage, −400 V; post sample buffer sip time, 40 seconds; final delay, 120 seconds; and peak order, Product First.
A conversion rate was calculated from the peak heights of the resulting substrate and product. The conversion rate when not containing a compound was used as a control, and a concentration dependent curve was made by plotting the rate of increase in activity to the control at each concentration of a compound.

T1 sequence (P54646 whole entry): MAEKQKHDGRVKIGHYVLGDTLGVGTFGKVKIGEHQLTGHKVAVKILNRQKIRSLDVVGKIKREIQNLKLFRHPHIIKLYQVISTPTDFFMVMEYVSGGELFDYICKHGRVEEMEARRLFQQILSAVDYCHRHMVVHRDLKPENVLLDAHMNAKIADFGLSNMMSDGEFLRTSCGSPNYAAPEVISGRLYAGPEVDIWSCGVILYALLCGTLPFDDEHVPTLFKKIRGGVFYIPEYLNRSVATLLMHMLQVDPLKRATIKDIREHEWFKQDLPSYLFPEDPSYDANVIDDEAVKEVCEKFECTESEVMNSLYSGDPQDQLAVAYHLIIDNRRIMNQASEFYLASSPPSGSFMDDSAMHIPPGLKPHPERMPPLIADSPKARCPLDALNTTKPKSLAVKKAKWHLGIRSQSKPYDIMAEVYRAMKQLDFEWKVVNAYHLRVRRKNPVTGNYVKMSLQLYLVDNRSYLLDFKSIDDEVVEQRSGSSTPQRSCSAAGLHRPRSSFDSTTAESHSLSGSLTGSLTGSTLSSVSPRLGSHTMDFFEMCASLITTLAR
T1 sequence (O43741 whole entry): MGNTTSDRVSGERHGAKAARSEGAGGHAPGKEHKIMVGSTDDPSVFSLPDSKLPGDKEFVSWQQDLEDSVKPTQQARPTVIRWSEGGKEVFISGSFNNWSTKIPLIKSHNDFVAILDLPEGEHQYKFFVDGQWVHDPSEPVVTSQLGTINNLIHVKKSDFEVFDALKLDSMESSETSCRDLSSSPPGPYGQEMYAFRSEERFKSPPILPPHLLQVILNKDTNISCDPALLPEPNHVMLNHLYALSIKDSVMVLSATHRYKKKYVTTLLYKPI
T1 sequence (P54619 whole entry partner): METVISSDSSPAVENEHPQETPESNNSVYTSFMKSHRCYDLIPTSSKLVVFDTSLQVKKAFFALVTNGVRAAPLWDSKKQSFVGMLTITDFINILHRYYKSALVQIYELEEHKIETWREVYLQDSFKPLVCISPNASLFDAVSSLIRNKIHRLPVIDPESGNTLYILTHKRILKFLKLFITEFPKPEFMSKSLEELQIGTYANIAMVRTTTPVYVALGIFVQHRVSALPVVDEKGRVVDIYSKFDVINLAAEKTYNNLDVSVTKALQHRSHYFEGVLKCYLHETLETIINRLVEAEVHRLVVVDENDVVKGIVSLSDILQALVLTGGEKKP

## CS(=O)(=O)Nc1ccc(-c2ccc(-c3nc4cc(O[C@@H]5CO[C@H]6[C@@H]5OC[C@H]6O)[nH]c4cc3F)cc2)nc1 [Compound I-4-56]
  EC150 (compound concentration showing 150% relative to the control (100%)): 5.8 nM
  Emax: 396%

## Cn1cc(-c2ccc(-c3nc4cc(O[C@@H]5CO[C@H]6[C@@H]5OC[C@H]6O)[nH]c4cc3F)cc2)cn1 [Compound I-3-25]
  EC150 (compound concentration showing 150% relative to the control (100%)): 6.6 nM
  Emax: 493%

## O=C(CO)NCCCOc1ccc(-c2nc3cc(O[C@@H]4CO[C@H]5[C@@H]4OC[C@H]5O)[nH]c3cc2F)cc1 [Compound I-3-31]
  EC150 (compound concentration showing 150% relative to the control (100%)): 55 nM
  Emax: 505%

## O=C(CO)N1CC=C(c2cc(F)c(-c3nc4cc(O[C@@H]5CO[C@H]6[C@@H]5OC[C@H]6O)[nH]c4cc3Cl)c(F)c2)CC1 [Compound I-1-10]
  EC150 (compound concentration showing 150% relative to the control (100%)): 1.8 nM
  Emax: 751%

## CS(C)(=O)=Nc1ccc(-c2ccc(-c3nc4cc(O[C@@H]5CO[C@H]6[C@@H]5OC[C@H]6O)[nH]c4cc3F)c(F)c2)cc1 [Compound I-4-5]
  EC150 (compound concentration showing 150% relative to the control (100%)): 3.2 nM
  Emax: 510%

## Cn1ccc2cc(-c3nc4c(C#N)c(O[C@@H]5CO[C@H]6[C@@H]5OC[C@H]6O)[nH]c4cc3Cl)ccc21 [Compound I-2-28]
  EC150 (compound concentration showing 150% relative to the control (100%)): 57 nM
  Emax: 446%

## O[C@@H]1CO[C@H]2[C@@H]1OC[C@H]2Oc1cc2nc(-c3ccc(N4CCOCC4)cc3)c(C(F)(F)F)cc2[nH]1 [Compound I-2-2]
  EC150 (compound concentration showing 150% relative to the control (100%)): 38 nM
  Emax (maximum rate of increase in activity within the measurement range): 511%

## Cn1ncc2cc(-c3nc4cc(O[C@@H]5CO[C@H]6[C@@H]5OC[C@H]6O)[nH]c4cc3F)ccc21 [Compound I-2-69]
  EC150 (compound concentration showing 150% relative to the control (100%)): 58 nM
  Emax: 521%

## COc1nc(N2CCCC2)ccc1-c1nc2cc(O[C@@H]3CO[C@H]4[C@@H]3OC[C@H]4O)[nH]c2cc1F [Compound I-3-27]
  EC150 (compound concentration showing 150% relative to the control (100%)): 12 nM
  Emax: 633%

## O[C@@H]1CO[C@H]2[C@@H]1OC[C@H]2Oc1cc2nc(-c3ccc(C4CCCO4)cc3)c(F)cc2[nH]1 (stereo partly drawn) [Compound I-2-68]
  EC150 (compound concentration showing 150% relative to the control (100%)): 26 nM
  Emax: 382%

## O[C@@H]1CO[C@H]2[C@@H]1OC[C@H]2Oc1[nH]c2cc(Cl)c(-c3ccc(N4CCOCC4)cc3)nc2c1Br [Compound I-2-9]
  EC150 (compound concentration showing 150% relative to the control (100%)): 66 nM
  Emax (maximum rate of increase in activity within the measurement range): 395%

## CN=S(C)(=O)c1ccc(-c2ccc(-c3nc4cc(O[C@@H]5CO[C@H]6[C@@H]5OC[C@H]6O)[nH]c4cc3F)cc2)cc1 (stereo partly drawn) [Compound I-4-36]
  EC150 (compound concentration showing 150% relative to the control (100%)): 2.3 nM
  Emax: 510%

## O[C@@H]1CO[C@H]2[C@@H]1OC[C@H]2Oc1cc2nc(-c3ccc(-c4ccsc4)cc3)c(F)cc2[nH]1 [Compound I-3-23]
  EC150 (compound concentration showing 150% relative to the control (100%)): 5 nM
  Emax: 510%

## CS(=O)(=O)N1C2C=C(c3ccc(-c4nc5cc(O[C@@H]6CO[C@H]7[C@@H]6OC[C@H]7O)[nH]c5cc4F)cc3)CC1CC2 (stereo partly drawn) [Compound I-3-4]
  EC150 (compound concentration showing 150% relative to the control (100%)): 30 nM
  Emax (maximum rate of increase in activity within the measurement range): 568%

## O[C@@H]1CO[C@H]2[C@@H]1OC[C@H]2Oc1[nH]c2cc(Cl)c(-c3ccc(N4CCOCC4)cc3)nc2c1F [Compound I-2-8]
  EC150 (compound concentration showing 150% relative to the control (100%)): 8.9 nM
  Emax (maximum rate of increase in activity within the measurement range): 447%

## CC(C)(C(=O)O)[C@H]1CC[C@H](Oc2cc3nc(-c4ccc(N5CC[C@@H](O)C5)cc4)c(Cl)cc3[nH]2)CC1 [Compound I-1-43]
  EC150 (compound concentration showing 150% relative to the control (100%)): 98 nM
  Emax: 302%

## O[C@@H]1CO[C@H]2[C@@H]1OC[C@H]2Oc1cc2nc(-c3ccc(N4CCOCC4)cc3)c(Cl)c(F)c2[nH]1 [Compound I-2-3]
  EC150 (compound concentration showing 150% relative to the control (100%)): 6.9 nM
  Emax: 508%

## OC[C@@H]1C[C@H](Oc2cc3nc(-c4c(F)cc(N5CCOCC5)cc4F)c(Cl)cc3[nH]2)CO1 [Compound I-1-18]
  EC150 (compound concentration showing 150% relative to the control (100%)): 22 nM
  Emax: 776%

## COc1cccc(-c2ccc(-c3nc4c(C#N)c(O[C@@H]5CO[C@H]6[C@@H]5OC[C@H]6O)[nH]c4cc3Cl)cc2)c1O [Compound I-1-38]
  EC150 (compound concentration showing 150% relative to the control (100%)): 1.5 nM
  Emax: 841%

## O[C@@H]1CO[C@H]2[C@@H]1OC[C@H]2Oc1cc2nc(-c3ccc(N4CCOCC4)cc3)c(F)cc2[nH]1 [Compound I-1-39]
  EC150 (compound concentration showing 150% relative to the control (100%)): 5.3 nM
  Emax: 788%

## CS(C)(=O)=NC1CC=C(c2ccc(-c3nc4cc(O[C@@H]5CO[C@H]6[C@@H]5OC[C@H]6O)[nH]c4cc3F)cc2)CC1 (stereo partly drawn) [Compound I-4-17]
  EC150 (compound concentration showing 150% relative to the control (100%)): 2.9 nM
  Emax: 511%

## O[C@@H]1CO[C@H]2[C@@H]1OC[C@H]2Oc1cc2nc(-c3ccc(N4CCOCC4)cc3F)c(C(F)(F)F)cc2[nH]1 [Compound I-3-39]
  EC150 (compound concentration showing 150% relative to the control (100%)): 200 nM
  Emax: 491%

## O[C@@H]1CO[C@H]2[C@@H]1OC[C@H]2Oc1cc2nc(-c3ccc(C4CCCCO4)cc3)c(F)cc2[nH]1 (stereo partly drawn) [Compound I-2-57]
  EC150 (compound concentration showing 150% relative to the control (100%)): 10 nM
  Emax: 484%

## N#Cc1c(O[C@@H]2CO[C@H]3[C@@H]2OC[C@H]3O)[nH]c2cc(Cl)c(-c3ccc(-c4ccc(-n5cncn5)cc4)cc3)nc12 [Compound I-1-58]
  EC150 (compound concentration showing 150% relative to the control (100%)): 3.8 nM
  Emax: 836%

## N#Cc1cc2[nH]c(O[C@@H]3CO[C@H]4[C@@H]3OC[C@H]4O)cc2nc1-c1ccc(N2CCOCC2)cc1 [Compound I-1-4]
  EC150 (compound concentration showing 150% relative to the control (100%)): 8.3 nM
  Emax: 849%

## C/C(=C\CNC(=O)CO)c1ccc(-c2nc3c(Cl)c(O[C@@H]4CO[C@H]5[C@@H]4OC[C@H]5O)[nH]c3cc2Cl)cc1 [Compound I-1-63]
  EC150 (compound concentration showing 150% relative to the control (100%)): 6.3 nM
  Emax: 791%

## N#Cc1c(O[C@@H]2CO[C@H]3[C@@H]2OC[C@H]3O)[nH]c2cc(Cl)c(OCc3c(F)cccc3F)nc12 [Compound I-1-1]
  EC150 (compound concentration showing 150% relative to the control (100%)): 330 nM
  Emax: 660%

## O[C@@H]1CO[C@H]2[C@@H]1OC[C@H]2Oc1[nH]c2cc(Cl)c(-c3c(F)cc(C4=CCOCC4)cc3F)nc2c1Cl [Compound I-1-15]
  EC150 (compound concentration showing 150% relative to the control (100%)): 53 nM
  Emax: 680%

## CS(=N)(=O)c1ccc(-c2ccc(-c3nc4cc(O[C@@H]5CO[C@H]6[C@@H]5OC[C@H]6O)[nH]c4cc3F)cc2)cc1 (stereo partly drawn) [Compound I-3-43]
  EC150 (compound concentration showing 150% relative to the control (100%)): 0.84 nM
  Emax: 538%

## O[C@@H]1CO[C@H]2[C@@H]1OC[C@H]2Oc1cc2nc(-c3ccc(N4CCOCC4)cc3F)c(Cl)cc2[nH]1 [Compound I-1-25]
  EC150 (compound concentration showing 150% relative to the control (100%)): 11 nM
  Emax: 768%

## N#Cc1c(O[C@@H]2CO[C@H]3[C@@H]2OC[C@H]3O)[nH]c2cc(Cl)c(-c3ccc(-c4cnn(CCO)c4)cc3)nc12 [Compound I-2-46]
  EC150 (compound concentration showing 150% relative to the control (100%)): 77 nM
  Emax: 510%

## COC(=O)Nc1ccc(-c2ccc(-c3nc4cc(O[C@@H]5CO[C@H]6[C@@H]5OC[C@H]6O)[nH]c4cc3F)cc2)cc1 [Compound I-4-35]
  EC150 (compound concentration showing 150% relative to the control (100%)): 10 nM
  Emax: 447%

## O=C(CO)N1CC=C(c2ccc(-c3nc4cc(O[C@@H]5CO[C@H]6[C@@H]5OC[C@H]6O)[nH]c4cc3F)cc2)CC1 [Compound I-1-50]
  EC150 (compound concentration showing 150% relative to the control (100%)): 2.4 nM
  Emax: 827%
